≈ marks a conversion by molar mass, not a printed value.
Tests used:
S. aureus (ATCC 29213) = assay: Bacterial assay: MIC against S. aureus; format: cell-based, Staphylococcus aureus; settings: for minimal inhibitory concentration (MIC): S. aureus ATCC 29213; for MIC: Staphylococcus aureus, ATCC29213, read-out: minimal inhibitory concentration (MIC)
S. pyogenes (ATCC 51339) = assay: Bacterial assay: MIC against S. pyogenes; format: cell-based, Streptococcus pyogenes; settings: for MIC: Streptococcus pyogenes, ATCC51339, read-out: minimal inhibitory concentration (MIC)

## 1-ethyl-3-[7-[4-(4-ethylpiperazin-1-yl)pyridin-2-yl]-5-[2-(1-hydroxy-1-methyl-ethyl)pyrimidin-5-yl]-1,3-benzothiazol-2-yl]urea [Compound 79]
S. aureus (ATCC 29213)
  minimal inhibitory concentration (MIC): 2 µg/mL
S. pyogenes (ATCC 51339); S. pyogenes ATCC 51339
  minimal inhibitory concentration (MIC): 2 µg/mL

## CCNC(=O)Nc1nc2cc(-c3cnc(C(C)(C)O)nc3)cc(-c3cc(CN4CC(C)(O)C4)ccn3)c2s1 [Compound 2, 1-ethyl-3-[7-[4-[(3-hydroxy-3-methyl-azetidin-1-yl)methyl]-2-pyridyl]-5-[2-(1-hydroxy-1-methyl-ethyl)pyrimidin-5-yl]-1,3-benzothiazol-2-yl]urea]
S. aureus (ATCC 29213)
  MIC: ≤ 1 µg/mL
S. pyogenes (ATCC 51339)
  MIC: ≤ 1 µg/mL

## CCNC(=O)Nc1nc2cc(-c3cnc(C(C)(C)O)nc3)c(OCC3CCCO3)cc2s1 (centres unmarked) [Compound 3, 1-ethyl-3-[5-[2-(1-hydroxy-1-methyl-ethyl)pyrimidin-5-yl]-6-(tetrahydrofuran-2-ylmethoxy)-1,3-benzothiazol-2-yl]urea]
S. aureus (ATCC 29213)
  MIC: ≤ 1 µg/mL
S. pyogenes (ATCC 51339)
  MIC: ≤ 1 µg/mL

## CCNC(=O)Nc1nc2cc(-c3ccc(C(O)c4cccnc4)nc3)c(F)cc2s1 (centres unmarked) [Compound 4, 1-ethyl-3-[6-fluoro-5-[6-[hydroxy(3-pyridyl)methyl]-3-pyridyl]-1,3-benzothiazol-2-yl]urea]
S. aureus (ATCC 29213)
  MIC: ≤ 1 µg/mL
S. pyogenes (ATCC 51339)
  MIC: ≤ 1 µg/mL

## CC(C)(O)c1ncc(-c2cc(-c3ccccn3)c3sc(NC(=O)NCCO)nc3c2)cn1 [Compound 5, 1-(2-hydroxyethyl)-3-[5-[2-(1-hydroxy-1-methyl-ethyl)pyrimidin-5-yl]-7-(2-pyridyl)-1,3-benzothiazol-2-yl]urea]
S. aureus (ATCC 29213)
  MIC: 16 µg/mL (≈ 35.5 µM)
S. pyogenes (ATCC 51339)
  MIC: ≤ 1 µg/mL

## CCNC(=O)Nc1nc2cc(-n3cc(C(C)O)nn3)cc(-c3ccccn3)c2s1 (centres unmarked) [Compound 9, 1-ethyl-3-[5-[4-(1-hydroxyethyl)triazol-1-yl]-7-(2-pyridyl)-1,3-benzothiazol-2-yl]urea]
S. aureus (ATCC 29213)
  MIC: 8 µg/mL (≈ 19.5 µM)
S. pyogenes (ATCC 51339)
  MIC: ≤ 1 µg/mL

## CCNC(=O)Nc1nc2cc(-n3cnc(C(C)(C)O)c3)cc(-c3ccccn3)c2s1 [Compound 11, 1-ethyl-3-[5-[4-(1-hydroxy-1-methyl-ethyl)imidazol-1-yl]-7-(2-pyridyl)-1,3-benzothiazol-2-yl]urea]
S. aureus (ATCC 29213)
  MIC: 4 µg/mL (≈ 9.47 µM)
S. pyogenes (ATCC 51339)
  MIC: ≤ 1 µg/mL

## CCNC(=O)Nc1nc2cc(-c3cnc(C(C)(C)O)nc3)cc(OC)c2s1 [Compound 12, 1-ethyl-3-[5-[2-(1-hydroxy-1-methyl-ethyl)pyrimidin-5-yl]-7-methoxy-1,3-benzothiazol-2-yl]urea]
S. aureus (ATCC 29213)
  MIC: ≤ 1 µg/mL
S. pyogenes (ATCC 51339)
  MIC: ≤ 1 µg/mL

## CCNC(=O)Nc1nc2cc(-c3cnc(C(C)(C)O)nc3)cc(COC)c2s1 [Compound 13, 1-ethyl-3-[5-[2-(1-hydroxy-1-methyl-ethyl)pyrimidin-5-yl]-7-(methoxymethyl)-1,3-benzothiazol-2-yl]urea]
S. aureus (ATCC 29213)
  MIC: ≤ 1 µg/mL
S. pyogenes (ATCC 51339)
  MIC: 2 µg/mL (≈ 4.98 µM)

## CCNC(=O)Nc1nc2cc(-c3cnc(C(C)O)nc3)cc(OCc3ccc(C)nc3)c2s1 (centres unmarked) [Compound 14, 1-ethyl-3-[5-[2-(1-hydroxyethyl)pyrimidin-5-yl]-7-[(6-methyl-3-pyridyl)methoxy]-1,3-benzothiazol-2-yl]urea]
S. aureus (ATCC 29213)
  MIC: ≤ 1 µg/mL
S. pyogenes (ATCC 51339)
  MIC: ≤ 1 µg/mL

## CCNC(=O)Nc1nc2cc(-c3cnc(C(C)O)nc3)cc(-c3cc(C[S+](C)[O-])ccn3)c2s1 (centres unmarked) [Compound 16, 1-ethyl-3-[5-[2-(1-hydroxyethyl)pyrimidin-5-yl]-7-[4-(methylsulfinylmethyl)-2-pyridyl]-1,3-benzothiazol-2-yl]urea]
S. aureus (ATCC 29213)
  MIC: 2 µg/mL (≈ 4.03 µM)
S. pyogenes (ATCC 51339)
  MIC: ≤ 1 µg/mL

## CCNC(=O)Nc1nc2cc(-c3cnc(C(C)OC(=O)N4CCN(C)CC4)nc3)cc(-c3ccccn3)c2s1 (centres unmarked) [Compound 18, 1-[5-[2-(ethylcarbamoylamino)-7-(2-pyridyl)-1,3-benzothiazol-5-yl]pyrimidin-2-yl]ethyl 4-methylpiperazine-1-carboxylate]
S. aureus (ATCC 29213)
  MIC: ≤ 1 µg/mL
S. pyogenes (ATCC 51339)
  MIC: ≤ 1 µg/mL

## CCNC(=O)Nc1nc2cc(-c3cnc(C(C)(C)OC(=O)CCC(=O)OC)nc3)cc(-c3ccccn3)c2s1 [Compound 20, O4-[1-[5-[2-(ethylcarbamoylamino)-7-(2-pyridyl)-1,3-benzothiazol-5-yl]pyrimidin-2-yl]-1-methyl-ethyl] O1-methyl butanedioate]
S. aureus (ATCC 29213)
  MIC: 2 µg/mL (≈ 3.65 µM)
S. pyogenes (ATCC 51339)
  MIC: ≤ 1 µg/mL

## CCNC(=O)Nc1nc2cc(-c3cnc(C(C)(C)OC(=O)CCC(=O)O)nc3)cc(-c3ccccn3)c2s1 [Compound 21, 4-[1-[5-[2-(ethylcarbamoylamino)-7-(2-pyridyl)-1,3-benzothiazol-5-yl]pyrimidin-2-yl]-1-methyl-ethoxy]-4-oxo-butanoic acid]
S. aureus (ATCC 29213)
  MIC: 4 µg/mL (≈ 7.48 µM)
S. pyogenes (ATCC 51339)
  MIC: ≤ 1 µg/mL

## CCNC(=O)Nc1nc2cc(-c3ccc(C(O)c4nccn4C)nc3)cc(-c3ccccn3)c2s1 (centres unmarked) [Compound 24, 1-ethyl-3-[5-[6-[hydroxy-(1-methylimidazol-2-yl)methyl]-3-pyridyl]-7-(2-pyridyl)-1,3-benzothiazol-2-yl]urea]
S. aureus (ATCC 29213)
  MIC: ≤ 1 µg/mL
S. pyogenes (ATCC 51339)
  MIC: ≤ 1 µg/mL

## CCNC(=O)Nc1nc2cc(-c3cnc(C(C)(C)O)nc3)cc(-c3ccc(CN4CCOCC4)cn3)c2s1 [Compound 25, 1-ethyl-3-[5-[2-(1-hydroxy-1-methyl-ethyl)pyrimidin-5-yl]-7-[5-(morpholinomethyl)-2-pyridyl]-1,3-benzothiazol-2-yl]urea]
S. aureus (ATCC 29213)
  MIC: ≤ 1 µg/mL
S. pyogenes (ATCC 51339)
  MIC: ≤ 1 µg/mL

## CCNC(=O)Nc1nc2cc(-c3cnc(C(C)(C)O)nc3)cc(-c3cc(CN4CCCC4)ccn3)c2s1 [Compound 26, 1-ethyl-3-[5-[2-(1-hydroxy-1-methyl-ethyl)pyrimidin-5-yl]-7-[4-(pyrrolidin-1-ylmethyl)-2-pyridyl]-1,3-benzothiazol-2-yl]urea]
S. aureus (ATCC 29213)
  MIC: ≤ 1 µg/mL
S. pyogenes (ATCC 51339)
  MIC: ≤ 1 µg/mL

## CCNC(=O)Nc1nc2cc(-c3cnc(C(C)(C)O)nc3)cc(-c3cc(CN4CCC(O)C4)ccn3)c2s1 (centres unmarked) [Compound 29, 1-ethyl-3-[5-[2-(1-hydroxy-1-methyl-ethyl)pyrimidin-5-yl]-7-[4-[(3-hydroxypyrrolidin-1-yl)methyl]-2-pyridyl]-1,3-benzothiazol-2-yl]urea]
S. aureus (ATCC 29213)
  MIC: ≤ 1 µg/mL
S. pyogenes (ATCC 51339)
  MIC: ≤ 1 µg/mL

## CCNC(=O)Nc1nc2cc(-c3cnc(C(C)(C)O)nc3)cc(-c3cc(C(C)N4CCOCC4)ccn3)c2s1 (centres unmarked) [Compound 33, 1-ethyl-3-[5-[2-(1-hydroxy-1-methyl-ethyl)pyrimidin-5-yl]-7-[4-(1-morpholinoethyl)-2-pyridyl]-1,3-benzothiazol-2-yl]urea]
S. aureus (ATCC 29213)
  MIC: ≤ 1 µg/mL
S. pyogenes (ATCC 51339)
  MIC: ≤ 1 µg/mL

## CCNC(=O)Nc1nc2cc(-c3cnc(C(C)(C)O)nc3)cc(-c3cc(CN4CCC(F)(F)C4)ccn3)c2s1 [Compound 34, 1-[7-[4-[(3,3-difluoropyrrolidin-1-yl)methyl]-2-pyridyl]-5-[2-(1-hydroxy-1-methyl-ethyl)pyrimidin-5-yl]-1,3-benzothiazol-2-yl]-3-ethyl-urea]
S. aureus (ATCC 29213)
  MIC: ≤ 1 µg/mL
S. pyogenes (ATCC 51339)
  MIC: ≤ 1 µg/mL

## CCNC(=O)Nc1nc2cc(-c3cnc(C(C)(C)O)nc3)cc(-c3cc(CN4CCCC(F)(F)C4)ccn3)c2s1 [Compound 37, 1-[7-[4-[(3,3-difluoro-1-piperidyl)methyl]-2-pyridyl]-5-[2-(1-hydroxy-1-methyl-ethyl)pyrimidin-5-yl]-1,3-benzothiazol-2-yl]-3-ethyl-urea]
S. aureus (ATCC 29213)
  MIC: ≤ 1 µg/mL
S. pyogenes (ATCC 51339)
  MIC: ≤ 1 µg/mL

## CCNC(=O)Nc1nc2cc(-c3ccc(C(C)(C)O)nc3)c(O)c(CN(C)C)c2s1 [Compound 41]
S. aureus (ATCC 29213)
  MIC: 16 µg/mL (≈ 37.2 µM)
S. pyogenes (ATCC 51339)
  MIC: 16 µg/mL (≈ 37.2 µM)

## CCNC(=O)Nc1nc2cc(-c3cnc(C(C)(C)O)nc3)cc(-c3cc(CN4CC[C@@H](OC)C4)ccn3)c2s1 [Compound 42, 1-ethyl-3-[5-[2-(1-hydroxy-1-methyl-ethyl)pyrimidin-5-yl]-7-[4-[[(3R)-3-methoxypyrrolidin-1-yl]methyl]-2-pyridyl]-1,3-benzothiazol-2-yl]urea]
S. aureus (ATCC 29213)
  MIC: ≤ 1 µg/mL
S. pyogenes (ATCC 51339)
  MIC: ≤ 1 µg/mL

## CCNC(=O)Nc1nc2cc(-c3ccc(C(C)(C)O)nc3)c(O)c(CN3CCOCC3)c2s1 [Compound 44, 1-ethyl-3-[6-hydroxy-5-[6-(1-hydroxy-1-methyl-ethyl)-3-pyridyl]-7-(morpholinomethyl)-1,3-benzothiazol-2-yl]urea]
S. aureus (ATCC 29213)
  MIC: 16 µg/mL (≈ 33.9 µM)
S. pyogenes (ATCC 51339)
  MIC: 16 µg/mL (≈ 33.9 µM)

## CCNC(=O)Nc1nc2cc(-c3cnc(C(C)(C)O)nc3)cc(-c3ccc(N4CCC(C)(C(=O)O)CC4)cn3)c2s1 [Compound 45, 1-[6-[2-(ethylcarbamoylamino)-5-[2-(1-hydroxy-1-methyl-ethyl)pyrimidin-5-yl]-1,3-benzothiazol-7-yl]-3-pyridyl]-4-methyl-piperidine-4-carboxylic acid]
S. aureus (ATCC 29213)
  MIC: 2 µg/mL (≈ 3.47 µM)
S. pyogenes (ATCC 51339)
  MIC: ≤ 1 µg/mL

## CCNC(=O)Nc1nc2cc(-c3cnc(C(C)(C)O)nc3)cc(-c3ccc(CC(=O)O)cn3)c2s1 [Compound 46, 2-[6-[2-(ethylcarbamoylamino)-5-[2-(1-hydroxy-1-methyl-ethyl)pyrimidin-5-yl]-1,3-benzothiazol-7-yl]-3-pyridyl]acetic acid]
S. aureus (ATCC 29213)
  MIC: 4 µg/mL (≈ 8.12 µM)
S. pyogenes (ATCC 51339)
  MIC: 4 µg/mL (≈ 8.12 µM)

## CCNC(=O)Nc1nc2cc(-c3cnc(N4CCC(C)(C(=O)O)CC4)nc3)cc(-c3ccc(C(C)(C)O)cn3)c2s1 [Compound 99, 1-[5-[2-(ethylcarbamoylamino)-7-[5-(1-hydroxy-1-methy-ethyl)-2-pyridyl]-1,3-benzothiazol-5-yl]pyrimidin-2-yl]-4-methyl-piperidine-4-carboxylic acid]
S. aureus (ATCC 29213)
  minimal inhibitory concentration (MIC): 2 µg/mL (≈ 3.47 µM)

## CCNC(=O)Nc1nc2cc(-c3cnc(C4(O)CNC4)nc3)cc(-c3ccccn3)c2s1 [Compound 163, 1-ethyl-3-[5-[2-(3-hydroxyazetidin-3-yl)pyrimidin-5-yl]-7-(2-pyridyl)-1,3-benzothiazol-2-yl]urea]
S. pyogenes (ATCC 51339)
  MIC: 8 µg/mL (≈ 17.9 µM)

## CCNC(=O)Nc1nc2cc(-c3cnc(C(C)O)nc3)c(N3CCOCC3)cc2s1 (centres unmarked) [Compound 194, 1-ethyl-3-[5-[2-[1-hydroxyethyl]pyrimidin-5-yl]-6-morpholino-1,3-benzothiazol-2-yl]urea]
S. aureus (ATCC 29213)
  MIC: 16 µg/mL (≈ 37.3 µM)

## CCNC(=O)Nc1nc2cc(-c3cnc(C(C)(C)O)nc3)cc(-c3cc(CNCCO)ccn3)c2s1 [Compound 196, 1-ethyl-3-[7-[4-[(2-hydroxyethylamino)methyl]-2-pyridyl]-5-[2-(1-hydroxy-1-methyl-ethyl)pyrimidin-5-yl]-1,3-benzothiazol-2-yl]urea]
S. aureus (ATCC 29213)
  MIC: 2 µg/mL (≈ 3.94 µM)

Source: patent publication US20170260178A1 (SPERO GYRASE, INC., priority 2012, published 2017)
